Reference: patent US8232305B2, “Anti-microbial compositions” (BASF SE, priority 2006, dated 2012)

Key:
Type in all cases: cell-based
[1] = system: Escherichia coli; experiment: Microbicidal activity according to EN1040; conditions: 1000 ppm, room temperature, vs growth control in water
Method: (§1) A bacterial suspension with a cell count of about 10^7 cfu/ml is contacted with appropriate concentrations of the specific substances and the residual cell count determined after incubation times of 5 and 30 minutes at room temperature under continuous stirring. Staphylococcus aureus was tested as gram+ and Escherichia coli as gram− organism. The results are given as a log reduction in comparison to a growth control in water.

[2] = system: Staphylococcus aureus; experiment: Microbicidal activity according to EN1040; conditions: 1000 ppm, room temperature, vs growth control in water
Method: as §1

[3] = system: Penicillium funiculosum; experiment: Fungicidal activity according to EN12175; conditions: spores about 10^6 cfu/ml, vs water control; for log reduction P. funiculosum 30 min: 1%
Method: (§2) Fungicidal activity is tested according to EN12175. A fungal spore suspension with a spore cell count of about 10^6 cfu/ml is contacted with appropriate concentrations of the specific substances and the residual spore cell count determined after incubation times of 30 and 60 minutes at room temperature under continuous stirring. Penicillium funiculosum, Aspergillus niger and Aureobasidium pullulans are tested as important mold strains. The results are given as a log reduction at each incubation time in comparison to a water control.

[4] = system: Aureobasidium pullulans; experiment: Fungicidal activity according to EN12175; conditions: spores about 10^6 cfu/ml, vs water control; for log reduction A. pullulans 30 min: 1%
Method: as §2

[5] = system: Aspergillus niger; experiment: Fungicidal activity according to EN12175; conditions: spores about 10^6 cfu/ml, vs water control; for log reduction A. niger 30 min: 1%
Method: as §2

[6] = system: A. niger ATCC 16404; experiment: Microbicidal activity under conditions similar to a preservative challenge test; conditions: 0.5%, inoculum 10^5 cfu/ml
Method: as §1
(§3) The test procedure of Example 7 is used, with an inoculum concentration of 10^5 cfu/ml and incubation times of 48 and 72 hours; figures given as log reduction.

[7] = system: E. coli ATCC 10536; experiment: as above; conditions: 0.5%, inoculum 10^5 cfu/ml
Method: as §1, §3

[8] = system: S. aureus ATCC 6538; experiment: as above; conditions: 0.5%, inoculum 10^5 cfu/ml
Method: as §1, §3

[9] = system: P. aeruginosa ATCC 15442; experiment: as above; conditions: 0.5%, inoculum 10^5 cfu/ml
Method: as §1, §3

[10] = system: C. albicans ATCC 10231; experiment: as above; conditions: 0.5%, inoculum 10^5 cfu/ml
Method: as §1, §3

[11] = system: C. albicans; experiment: Preservative challenge test in cosmetic emulsions (EurPh and USP); conditions: 0.5% w/w
Method: (§4) A preservative challenge test is conducted for representative cosmetic formulations according to the conditions of the EurPh and USP. The compound concentration in the formulations is 0.5% w/w. The Inoculum concentration of the five different strains is 2.1-4.2×10^5 cfu/ml, incubation time according to EurPh. 2, 7, 14 and 28 days. Preservation is investigated in two different emulsion types, w/o and o/w.

[12] = system: S. aureus; experiment: as above; conditions: 0.5% w/w
Method: as §4

[13] = system: E. coli; experiment: as above; conditions: 0.5% w/w
Method: as §4

[14] = system: A. niger; experiment: as above; conditions: 0.5% w/w
Method: as §4

[15] = system: P. aerug.; experiment: as above; conditions: 0.5% w/w
Method: as §4

## CCCCOC(=O)C[n+]1ccn(C)c1.[Br-] [Ex 3]
[1]
  log reduction E. coli 5 min.: <1 log
  log reduction E. coli 30 min.: <1 log
[2]
  log reduction S. aureus 5 min.: <1 log
  log reduction S. aureus 30 min.: <1 log
[3]
  log reduction P. funiculosum 30 min: <1 log
  log reduction P. funiculosum 1 h: <1 log
[4]
  log reduction A. pullulans 30 min: <1 log
  log reduction A. pullulans 1 h: <1 log
[5]
  log reduction A. niger 30 min: <1 log
  log reduction A. niger 1 h: <1 log
[6]
  log reduction A. niger ATCC 16404 48 h: <1 log
  log reduction A. niger ATCC 16404 72 h: <1 log
[7]
  log reduction E. coli ATCC 10536 48 h: >3 log
  log reduction E. coli ATCC 10536 72 h: >3 log
[8]
  log reduction S. aureus ATCC 6538 48 h: >3 log
  log reduction S. aureus ATCC 6538 72 h: >3 log
[9]
  log reduction P. aeruginosa ATCC 15442 48 h: >3 log
  log reduction P. aeruginosa ATCC 15442 72 h: >3 log
[10]
  log reduction C. albicans ATCC 10231 48 h: 1.4 log
  log reduction C. albicans ATCC 10231 72 h: 1.7 log

## CCCCCCCCCCCCOC(=O)C[n+]1ccn(C)c1.[Br-] [Ex 4]
[11]; O/W emulsion, 2 days
  Log Reduction C. albicans: 0 log
[11]; O/W emulsion, 7 days
  Log Reduction C. albicans: 0 log
[11]; O/W emulsion, 14 days
  Log Reduction C. albicans: 0 log
[11]; O/W emulsion, 28 days
  Log Reduction C. albicans: 0 log
[11]; W/O emulsion, 2 days
  Log Reduction C. albicans: 2 log
[11]; W/O emulsion, 7 days
  Log Reduction C. albicans: 3 log
[11]; W/O emulsion, 14 days
  Log Reduction C. albicans: 3 log
[11]; W/O emulsion, 28 days
  Log Reduction C. albicans: 5 log
[12]; O/W emulsion, 2 days
  Log Reduction S. aureus: 4 log
[12]; O/W emulsion, 7 days
  Log Reduction S. aureus: 6 log
[12]; O/W emulsion, 14 days
  Log Reduction S. aureus: 6 log
[12]; O/W emulsion, 28 days
  Log Reduction S. aureus: 6 log
[12]; W/O emulsion, 2 days
  Log Reduction S. aureus: 6 log
[12]; W/O emulsion, 7 days
  Log Reduction S. aureus: 6 log
[12]; W/O emulsion, 14 days
  Log Reduction S. aureus: 6 log
[12]; W/O emulsion, 28 days
  Log Reduction S. aureus: 6 log
[13]; O/W emulsion, 2 days
  Log Reduction E. coli: 1 log
[13]; O/W emulsion, 7 days
  Log Reduction E. coli: 1 log
[13]; O/W emulsion, 14 days
  Log Reduction E. coli: 2 log
[13]; O/W emulsion, 28 days
  Log Reduction E. coli: ≧4 log
[13]; W/O emulsion, 2 days
  Log Reduction E. coli: 6 log
[13]; W/O emulsion, 7 days
  Log Reduction E. coli: 6 log
[13]; W/O emulsion, 14 days
  Log Reduction E. coli: 6 log
[13]; W/O emulsion, 28 days
  Log Reduction E. coli: 6 log
[14]; O/W emulsion, 2 days
  Log Reduction A. niger: 0 log
[14]; O/W emulsion, 7 days
  Log Reduction A. niger: 0 log
[14]; O/W emulsion, 14 days
  Log Reduction A. niger: 0 log
[14]; O/W emulsion, 28 days
  Log Reduction A. niger: 0 log
[14]; W/O emulsion, 2 days
  Log Reduction A. niger: 0 log
[14]; W/O emulsion, 7 days
  Log Reduction A. niger: 1 log
[14]; W/O emulsion, 14 days
  Log Reduction A. niger: 2 log
[14]; W/O emulsion, 28 days
  Log Reduction A. niger: 2 log
[15]; O/W emulsion, 2 days
  Log Reduction P. aerug.: ≧4 log
[15]; O/W emulsion, 7 days
  Log Reduction P. aerug.: 5 log
[15]; O/W emulsion, 14 days
  Log Reduction P. aerug.: 5 log
[15]; O/W emulsion, 28 days
  Log Reduction P. aerug.: 5 log
[15]; W/O emulsion, 2 days
  Log Reduction P. aerug.: 5 log
[15]; W/O emulsion, 7 days
  Log Reduction P. aerug.: 5 log
[15]; W/O emulsion, 14 days
  Log Reduction P. aerug.: 5 log
[15]; W/O emulsion, 28 days
  Log Reduction P. aerug.: 5 log
[1]
  log reduction E. coli 5 min.: >5 log
  log reduction E. coli 30 min.: >5 log
[2]
  log reduction S. aureus 5 min.: >5 log
  log reduction S. aureus 30 min.: >5 log
[3]
  log reduction P. funiculosum 30 min: <1 log
  log reduction P. funiculosum 1 h: 1.9 log
[4]
  log reduction A. pullulans 30 min: >4 log
  log reduction A. pullulans 1 h: >4 log
[5]
  log reduction A. niger 30 min: 2.1 log
  log reduction A. niger 1 h: >4 log
[6]
  log reduction A. niger ATCC 16404 48 h: 1.8 log
  log reduction A. niger ATCC 16404 72 h: 2.3 log
[7]
  log reduction E. coli ATCC 10536 48 h: >3 log
  log reduction E. coli ATCC 10536 72 h: >3 log
[8]
  log reduction S. aureus ATCC 6538 48 h: >3 log
  log reduction S. aureus ATCC 6538 72 h: >3 log
[9]
  log reduction P. aeruginosa ATCC 15442 48 h: >3 log
  log reduction P. aeruginosa ATCC 15442 72 h: >3 log
[10]
  log reduction C. albicans ATCC 10231 48 h: >3 log
  log reduction C. albicans ATCC 10231 72 h: >3 log
